Measured values: ChEMBL document CHEMBL5260858, “Targeting mycobacterial membranes and membrane proteins: Progress and limitations” (Bioorg Med Chem, 2023)
Converted amounts (≈) assume the structure as drawn.

How the values were obtained:
[1] = test system: Mycobacterium tuberculosis; assay: Antitubercular activity against Mycobacterium tuberculosis H37Rv infected in human HepG2 cells assessed as reduction in colony forming unit by CFU analysis; assay type: functional, organism-based
[2] = test system: Mycobacterium tuberculosis; assay: Antitubercular activity against Mycobacterium tuberculosis H37Rv assessed as bacterial growth inhibition by REMA analysis; assay type: functional
[3] = test system: Mycobacterium tuberculosis; assay: Antitubercular activity against Mycobacterium tuberculosis H37Rv assessed as bacterial growth inhibition in presence of clavulanate by checkerboard assay; assay type: functional
[4] = test system: Mycobacterium tuberculosis; assay: Antitubercular activity against Mycobacterium tuberculosis H37Rv assessed as bacterial growth inhibition by checkerboard assay; assay type: functional
[5] = test system: Mycobacterium tuberculosis; assay: Antitubercular activity against Mycobacterium tuberculosis H37Rv ATCC 27294 assessed as bacterial growth inhibition by resazurin microtiter assay; assay type: functional
[6] = test system: Mycobacterium tuberculosis; assay: Antitubercular activity against Mycobacterium tuberculosis H37Rv ATCC 27294 infected in mouse J774 cells assessed as intracellular bacterial growth inhibition incubated for by resazurin microtiter assay; assay type: functional
[7] = test system: Mycobacterium tuberculosis; assay: Antitubercular activity against Mycobacterium tuberculosis H37Rv assessed as bacterial growth inhibition by microdilution method; assay type: functional
[8] = biological target: T1, Decaprenylphosphoryl-beta-D-ribose oxidase (Mycobacterium tuberculosis (strain ATCC 25618 / H37Rv), UniProt P9WJF1); assay: Inhibition of Mycobacterium tuberculosis H37Rv DprE1 assessed as formation of resorufin using farnesyl-phosphoryl-beta-D-ribofuranose by AmplexRed reagent based fluorescence assay
T1 sequence (P9WJF1 whole entry): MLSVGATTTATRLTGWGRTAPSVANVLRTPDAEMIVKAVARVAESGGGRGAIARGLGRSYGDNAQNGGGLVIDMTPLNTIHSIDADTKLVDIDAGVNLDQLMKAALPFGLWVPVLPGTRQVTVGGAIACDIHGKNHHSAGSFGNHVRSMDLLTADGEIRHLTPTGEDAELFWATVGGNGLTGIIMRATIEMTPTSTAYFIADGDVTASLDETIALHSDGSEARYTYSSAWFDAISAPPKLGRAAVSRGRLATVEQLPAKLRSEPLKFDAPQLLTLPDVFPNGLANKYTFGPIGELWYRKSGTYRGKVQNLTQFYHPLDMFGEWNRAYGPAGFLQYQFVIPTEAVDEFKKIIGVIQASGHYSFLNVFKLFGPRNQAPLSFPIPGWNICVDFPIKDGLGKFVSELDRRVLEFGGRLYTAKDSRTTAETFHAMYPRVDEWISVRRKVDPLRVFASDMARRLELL

[9] = test system: Mycobacterium tuberculosis; assay: Antimycobacterial activity against Mycobacterium tuberculosis H37Rv assessed as bacterial growth inhibition incubated for 1 week by resazurin reduction microplate assay; assay type: functional; settings: 168 h, time 1 weeks
[10] = test system: Mycobacterium tuberculosis; assay: Antitubercular activity against Mycobacterium tuberculosis H37Rv expressing GFP assessed as bacterial growth inhibition by measuring GFP fluorescence incubated for 72 hrs by fluorescence analysis; assay type: functional
[11] = test system: Mycobacterium tuberculosis; assay: Antitubercular activity against Mycobacterium tuberculosis H37Rv assessed as bacterial growth inhibition incubated for 6 days by resazurin reduction microplate assay; assay type: functional; settings: 144 h, time 6 day
[12] = test system: Mycobacterium tuberculosis; assay: Antitubercular activity against Mycobacterium tuberculosis H37Rv infected in human THP-1 cells assessed as bacterial growth inhibition incubated for 48 hrs by PrestoBlue staining based fluorescence analysis; assay type: functional, organism-based; settings: THP-1, 48 h
[13] = test system: Mycobacterium tuberculosis; assay: Antitubercular activity against Mycobacterium tuberculosis H37Rv infected in BALB/c mouse assessed as reduction in bacterial load at 100 mg/kg, po for 10 days by CFU analysis; assay type: functional; settings: time 10 day
[14] = test system: Mycobacterium tuberculosis; assay: Antitubercular activity against Mycobacterium tuberculosis H37Rv ATCC 27294 infected in african green monkey Vero cells assessed as bacterial growth inhibition incubated for 6 days by microplate alamar blue assay; assay type: functional; settings: H37Rv ATCC 27294, 144 h, time 6 day
[15] = Selectivity index, ratio of IC50 for cytotoxicity against African green monkey Vero cells to MIC for antitubercular activity against Mycobacterium tuberculosis H37Rv ATCC 27294; assay type: toxicity, cell-based; settings: read-out: Selectivity Index
[16] = test system: Mycobacterium tuberculosis; assay: Antitubercular activity against Mycobacterium tuberculosis Erdman ATCC 35801 infected in RAW264.7 cells assessed as inhibition of intracellular bacterial growth incubated for 6 days by microplate alamar blue assay; assay type: functional; parameters: scale not given: the % may be the effect or the level left; settings: time 6 day
[17] = test system: Mycobacterium tuberculosis; assay: Antitubercular activity against Mycobacterium tuberculosis H37Rv assessed as intracellular bacterial growth inhibition; assay type: functional
[18] = test system: Mycobacterium tuberculosis; assay: Antitubercular activity against Mycobacterium tuberculosis H37Rv assessed as extracellular bacterial growth inhibition; assay type: functional
[19] = test system: Mycobacterium tuberculosis; assay: Antitubercular activity against Mycobacterium tuberculosis H37Rv infected in human HepG2 cells assessed as bacterial growth inhibition incubated for 4 weeks by resazurin reduction microtiter assay; assay type: functional, organism-based; settings: HepG2, 672 h
[20] = test system: Mycobacterium tuberculosis; assay: In vivo antimycobacterial activity against Mycobacterium tuberculosis H37Rv infected in BALB/c mouse assessed as reduction in log10 CFU in lungs at 50 mg/kg, po and measured after 4 weeks; assay type: functional
[21] = test system: Mycobacterium tuberculosis; assay: In vivo antimycobacterial activity against Mycobacterium tuberculosis H37Rv infected in BALB/c mouse assessed as reduction in log10 CFU in lungs at 12.5 mg/kg, po and measured after 4 weeks; assay type: functional
[22] = test system: Mycobacteroides abscessus; assay: Antitubercular activity against Mycobacterium abscessus 2524 assessed as bacterial growth inhibition incubated 3 to 5 days by resazurin based broth microdilution method; assay type: functional; settings: time 3-5 day
[23] = test system: Mycobacteroides abscessus; assay: Antitubercular activity against Mycobacterium abscessus CF assessed as bacterial growth inhibition incubated 3 to 5 days by resazurin based broth microdilution method; assay type: functional; settings: time 3-5 day
[24] = test system: Mycobacteroides abscessus; assay: Antitubercular activity against Mycobacterium abscessus 1298 assessed as bacterial growth inhibition incubated 3 to 5 days by resazurin based broth microdilution method; assay type: functional; settings: time 3-5 day
[25] = test system: Mycobacteroides abscessus; assay: Antitubercular activity against Mycobacterium abscessus 2587 assessed as bacterial growth inhibition incubated 3 to 5 days by resazurin based broth microdilution method; assay type: functional; settings: time 3-5 day
[26] = test system: Mycobacteroides abscessus; assay: Antitubercular activity against Mycobacterium abscessus 5175 assessed as bacterial growth inhibition incubated 3 to 5 days by resazurin based broth microdilution method; assay type: functional; settings: time 3-5 day
[27] = test system: Mycobacteroides abscessus; assay: Antitubercular activity against Mycobacterium abscessus 2069 assessed as bacterial growth inhibition incubated 3 to 5 days by resazurin based broth microdilution method; assay type: functional; settings: time 3-5 day
[28] = test system: Mycobacteroides abscessus; assay: Antitubercular activity against Mycobacterium abscessus CIP104536 assessed as bacterial growth inhibition incubated 3 to 5 days by resazurin based broth microdilution method; assay type: functional; settings: time 3-5 day
[29] = test system: Mycobacteroides abscessus; assay: Antitubercular activity against Mycobacterium abscessus 3321 assessed as bacterial growth inhibition incubated 3 to 5 days by resazurin based broth microdilution method; assay type: functional; settings: time 3-5 day
[30] = test system: Mycobacteroides abscessus; assay: Antitubercular activity against Mycobacterium abscessus 2648 assessed as bacterial growth inhibition incubated 3 to 5 days by resazurin based broth microdilution method; assay type: functional; settings: time 3-5 day
[31] = test system: Mycobacteroides abscessus; assay: Antitubercular activity against Mycobacterium abscessus 3022 assessed as bacterial growth inhibition incubated 3 to 5 days by resazurin based broth microdilution method; assay type: functional; settings: time 3-5 day
[32] = test system: Mycobacterium tuberculosis; assay: Antitubercular activity against Mycobacterium tuberculosis MDR_CHUV assessed as bacterial growth inhibition by REMA analysis; assay type: functional
[33] = test system: Mycobacterium tuberculosis; assay: Antimycobacterial activity against Mycobacterium tuberculosis Erdman assessed as bacterial growth inhibition incubated for 7 days by microplate alamar blue assay; assay type: functional; settings: 168 h, time 7 day
[34] = test system: Mycobacterium avium; assay: Antimycobacterial activity against Mycobacterium avium assessed as bacterial growth inhibition incubated for 7 days by microplate alamar blue assay; assay type: functional; settings: 168 h, time 7 day
[35] = test system: Mycobacterium tuberculosis; assay: Antimycobacterial activity against Mycobacterium tuberculosis H37Rv assessed as bacterial growth inhibition incubated for 7 days by microplate alamar blue assay; assay type: functional; settings: 168 h, time 7 day
[36] = test system: Mycobacterium tuberculosis; assay: In vivo antimycobacterial activity against Mycobacterium tuberculosis Erdman infected in Balb/c mouse assessed as reduction in log10 CFU in lungs at 15 mg/kg,po for 4 weeks […]; assay type: functional
[37] = test system: Mycobacterium tuberculosis; assay: Antitubercular activity against Mycobacterium tuberculosis H37Rv assessed as bacterial growth inhibition; assay type: functional

Question: With `CCOC(=O)c1nc2ccc(C(F)(F)F)cc2nc1NCc1ccc(OC)cc1` as the compound, how does the IC50 [1] read?
Answer: 6100 nM

Question: What about the MIC99 [2] of the same compound?
Answer: 3.1 µM (≈ 1.26 µg/mL)

Question: What does the source list for `CO[C@H]1CCC[C@H]2C1=C(C(=O)OC(C)OC(=O)OC1CCCCC1)N1C(=O)[C@H]([C@@H](C)O)[C@@H]21` (stereo partly specified) [SANFETRINEM CILEXETIL]?
Answer: MIC [3]: 5 µM; MIC [4]: 7.5 µM

Question: For `COc1ccc(/C=C2/S/C(=N/N=C/c3ccccc3O)NC2=O)cc1`, which MIC90 [5] is on record?
Answer: 1 µg/mL (≈ 2.83 µM)

Question: What about the MIC [6] of the same compound?
Answer: 4 µg/mL (≈ 11.3 µM)

Question: Which MIC [7] does the source give for `COC(=O)c1c(NC(=O)c2c(F)c(F)c(F)c(F)c2F)sc2c1CCCCC2` here?
Answer: 1 µM

Question: Which results are given for `O=c1nc(N2CCN(CC3CCCCC3)CC2)sc2c(-n3cccc3)cc(C(F)(F)F)cc12`?
Answer: IC50 [8]: < 8000 nM; MIC [9]: 0.34 µM (≈ 0.162 µg/mL)

Question: With `CC(C)(C)c1ccc(Cn2cnc([N+](=O)[O-])n2)cc1` as the compound, how does the IC90 [10] read?
Answer: 500 nM

Question: Which results are given for `O=C(/C=C/c1cscn1)N1CCN(Cc2ccc3c(c2)OCO3)CC1`?
Answer: MIC [11]: 0.1 µg/mL (≈ 0.28 µM); IC50 [12]: 0.2 µg/mL (≈ 0.56 µM); Activity [13]: 0.6 log10CFU

Question: Which MIC [14] does the source give for `CC(C)=CCC/C(C)=C/CNCCNC1C2CC3CC(C2)CC1C3` (stereo unspecified) [SQ109] here?
Answer: 0.7 µM (≈ 0.231 µg/mL)

Question: And the selectivity ratio [15]?
Answer: 16.7

Question: And the Activity [16]?
Answer: 99%

Question: With `O=C(/C=C/c1ccccc1)N1CCN(Cc2ccc3c(c2)OCO3)CC1` as the compound, how does the MIC [11] read?
Answer: 0.2 µg/mL (≈ 0.571 µM)

Question: What about the IC50 [12] of the same compound?
Answer: 0.3 µg/mL (≈ 0.856 µM)

Question: What about the Activity [13] of the same compound?
Answer: 0.9 log10CFU

Question: With `COc1ccc(OCCNC(=O)c2cc([N+](=O)[O-])cc([N+](=O)[O-])c2)cc1` as the compound, how does the MIC [17] read?
Answer: 0.2 µM (≈ 0.0723 µg/mL)

Question: What about the MIC [18] of the same compound?
Answer: 0.2 µM (≈ 0.0723 µg/mL)

Question: What does the source list for `O=C(/C=C/c1ccsc1)N1CCN(Cc2ccc3c(c2)OCO3)CC1`?
Answer: MIC [11]: 0.1 µg/mL (≈ 0.281 µM); IC50 [19]: 0.3 µg/mL (≈ 0.842 µM)

Question: Which Activity [20] does the source give for `CC1(C)CCC(NC(=O)c2cc3c(Cl)cc(Cl)cc3[nH]2)CC1` here?
Answer: 3.82 log10CFU

Question: What about the Activity [21] of the same compound?
Answer: 1.24 log10CFU

Question: What does the source list for `COc1ccc(CNc2nc3cc(C(F)(F)F)ccc3nc2C(=O)O)cc1`?
Answer: IC50 [1]: 2500 nM; MIC99 [2]: 3.1 µM (≈ 1.17 µg/mL)

Question: Which Activity [20] does the source give for `CC1(C)CCC(NC(=O)c2cc3c(F)cc(F)cc3[nH]2)CC1` here?
Answer: 3.4 log10CFU

Question: What about the Activity [21] of the same compound?
Answer: 0.9 log10CFU

Question: Which results are given for `Cc1ccccc1CN1CCC(O)(c2ccc(Cl)c(C(F)(F)F)c2)CC1`?
Answer: MIC [22]: 0.125 µg/mL (≈ 0.326 µM); MIC [23]: 0.125 µg/mL (≈ 0.326 µM); MIC [24]: 0.125 µg/mL (≈ 0.326 µM); MIC [25]: 0.125 µg/mL (≈ 0.326 µM); MIC [26]: 0.125 µg/mL (≈ 0.326 µM); MIC [27]: 0.125 µg/mL (≈ 0.326 µM); MIC [28]: 0.125 µg/mL (≈ 0.326 µM); MIC [29]: 0.125 µg/mL (≈ 0.326 µM); MIC [30]: 0.125 µg/mL (≈ 0.326 µM); MIC [31]: 0.125 µg/mL (≈ 0.326 µM)

Question: For `C[C@H]1COC2(CCN(c3nc(=O)c4cc(C(F)(F)F)cc([N+](=O)[O-])c4s3)CC2)O1` [BTZ-043], which MIC99 [32] is on record?
Answer: 0.002 µg/mL (≈ 0.00464 µM)

Question: For `O=[N+]([O-])c1cc(C(F)(F)F)cc2c(=S)nc(N3CCC4(CC3)OCCO4)sc12`, which MIC [33] is on record?
Answer: 32 µg/mL (≈ 73.8 µM)

Question: And the MIC [34]?
Answer: < 0.05 µg/mL

Question: And the MIC [35]?
Answer: 0.02 µg/mL (≈ 0.0461 µM)

Question: And the Activity [36]?
Answer: 3.4 log10CFU

Question: What does the source list for `O=c1nc(N2CCN(CC3CCCCC3)CC2)sc2c([N+](=O)[O-])cc(C(F)(F)F)cc12` [MACOZINONE]?
Answer: MIC99 [32]: 0.0004 µg/mL (≈ 0.000876 µM); MIC99 [37]: 0.003 µg/mL (≈ 0.00657 µM)
